Source: patent US10280179B2, “Spiroquinoxaline derivatives as inhibitors of non-apoptotic regulated cell-death” (Helmholtz Zentrum Munchen—Deutches Forschungszentrum Fur …, priority 2013, dated 2019)

Key:
Type in all cases: cell-based
[1] = Cellular toxicity, same assay as Example B.4 without TAM (Example B.5); conditions: mouse; Pfa1 cells without TAM; read-out: TC50 (the source's name)
Source text: Cellular Toxicity of Compounds of the Invention
An estimate of the toxicity for compounds of the invention was obtained by using the same assay as described in Example B.4, but without the addition of TAM. […] Such TC50 values obtained for certain compounds disclosed herein, together with an approximate therapeutic window (estimated by dividing each TC50 by the corresponding IC50 determined from example B.4) are shown in Table 3.

[2] = system: mouse hippocampal cell line (Ht22); test: Inhibition of glutamate-induced non-apoptotic cell death (Example B.2); conditions: HT-22, Ht22 cells, glutamate-induced cell death, read-out: Ht22/GLU
Source text: Inhibition of Glutamate-Induced Non-Apoptotic Cell Death by Compounds of the Present Invention
Glutamate toxicity is conferred on cells from the mouse hippocampal cell line (Ht22) by inhibition of the cysteine/glutamate antiporter, System xc-, leading to impaired cysteine uptake and subsequent GSH depletion. This model is frequently used for mimicking glutathione depletion following oxidative stress in stroke, brain trauma and other neurodegenerative diseases and cellular conditions following ischemia (for example: van Leyen et al, J. Neurochem. 92:824-30 (2005)).
Compounds disclosed herein were evaluated for their ability to promote cell survival upon administration of a lethal dose of glutamate (GLU) to the cell-culture medium.
Briefly, Ht22 cells (ATCC) were propagated DMEM supplemented with 10% FBS/1% Penicillin-Streptomycin, and then seeded onto 96-well plates at a concentration of 2,000 cells/well in 100 μL of MEDIA, simultaneously with glutamate (Sigma Aldrich) to a final concentration of 5 mM, together with increasing concentrations of the compound to be tested (0.5 pM to 100 μM), and the plates incubated at 37° C./5% CO2 for 72 hours. Compound dilutions were prepared from 10 mM stocks dissolved in DMSO and diluted in media. Cells treated with glutamate alone were used as negative control and alpha-tocopherol (Sigma Aldrich) was used as positive control. Compound concentrations were tested in triplicate. After incubation, cell survival was detected and quantified as described in Example B.1.

[3] = system: Pfa1 cells; test: Inhibition of non-apoptotic cell death after tamoxifen-induced GPx4 knockout in a recombinant cell line (Example B.4); conditions: Mus musculus, read-out: Pfa1/TAM IC50
Source text: Inhibition of Non-Apoptotic Cell-Death by Compounds Disclosed Herein Using a Recombinant Cell Line
To combat high intracellular ROS levels, mammalian cells have evolved an intricate network of ROS scavenging in cells, in which the thioredoxin and glutathione (GSH) dependent systems prevail. […] Knockout of GPx4 in neurons causes massive neurodegeneration in cortical, cerebellar and hippocampal neurons underscoring the high relevance of ROS-induced cell death signaling in the brain. Briefly, immortalised fibroblasts from these mice were made to contain tamoxifen-inducible CreERT2, which catalyzes the functional ablation of both copies of GPx4 and resulting in a complete knockout of GPx4, a massive ROS burst, and cell death in cell culture. These cells (Pfa1 cells) were used to characterize compounds of the present invention, whereby tamoxifen (TAM) was given on day 0 along with the compound under test, and 72 hours later cell survival was evaluated using AlamarBlue.

SMILES | CC50 [1] | IC50 [2] | IC50 [3]
Clc1cc2c(cc1Cl)NC1(CCCCCC1)C(NCc1ccccc1)=N2 [C-235] | 10000 to 20000 nM | < 500 nM | < 200 nM
CCCCCCCC(=O)N1CCC2(CC1)Nc1ccccc1N=C2NCc1ccccc1 [N-216] | 10000 to 20000 nM | < 500 nM | < 500 nM
Fc1cccc(CNC2=Nc3ccccc3NC23CCCCC3)c1 [C-5] | 20000 to 50000 nM | < 5000 nM | < 500 nM
c1ccc(CCNC2=Nc3ccccc3NC23CCCCC3)cc1 [C-226] | 10000 to 20000 nM | < 2000 nM | < 1000 nM
Cc1cccc(CNC2=Nc3cc(Cl)c(Cl)cc3NC23CCCCC3)c1 [C-268] | 10000 to 20000 nM | < 500 nM | < 100 nM
CC(C)(C)c1ccc(CNC2=Nc3ccccc3NC23CCCCC3)cc1 [C-269] | 5000 to 10000 nM | < 500 nM | < 200 nM
Clc1ccc(CNC2=Nc3ccccc3NC23CCSCC3)cc1 [O/S-169] | 20000 to 50000 nM | < 1000 nM | < 1000 nM
Clc1ccc(CNC2=Nc3ccccc3NC23CCCCC3)cc1 [C-3] | 20000 to 50000 nM | < 500 nM | < 200 nM
Clc1cccc(CCNC2=Nc3ccccc3NC23CCNCC3)c1 [N-79] | 2000 to 5000 nM | < 50 nM | < 100 nM
Clc1cc2c(cc1Cl)NC1(CCCCCCC1)C(NCc1ccccc1)=N2 [C-237] | 10000 to 20000 nM | < 500 nM | < 500 nM
c1ccc(CCNC2=Nc3ccccc3NC23CCOCC3)cc1 [O/S-347] | 50000 to 100000 nM | < 5000 nM | < 5000 nM
Fc1cc(Cl)ccc1CNC1=Nc2ccccc2NC12CCOCC2 [O/S-61] | 20000 to 50000 nM | < 1000 nM | < 1000 nM
Clc1ccc(CNC2=Nc3ccccc3NC23CCCCCC3)cc1 [C-220] | 10000 to 20000 nM | < 500 nM | < 200 nM
CN1CCC2(CC1)Nc1cc(F)c(F)cc1N=C2NCc1ccccc1 [N-229] | 5000 to 10000 nM | < 100 nM | < 100 nM
c1ccc(CCCNC2=Nc3ccccc3NC23CCOCC3)cc1 [O/S-343] | 20000 to 50000 nM | < 5000 nM | < 2000 nM
Clc1ccc(CNC2=Nc3cc(Cl)c(Cl)cc3NC23CCNCC3)cc1 [N-208] | 500 to 1000 nM | < 50 nM | < 10 nM
CC(NC1=Nc2ccccc2NC12CCCCC2)c1ccccc1 (stereo not drawn) [C-244] | 10000 to 20000 nM | < 1000 nM | < 1000 nM
Clc1cccc(CNC2=Nc3cc(Cl)c(Cl)cc3NC23CCNCC3)c1 [N-115] | 200 to 500 nM | < 50 nM | < 10 nM
c1ccc(CCCNC2=Nc3ccccc3NC23CCCCC3)cc1 [C-221] | 5000 to 10000 nM | < 1000 nM | < 1000 nM
Cc1cc2c(cc1C)NC1(CCCCCC1)C(NCc1ccccc1)=N2 [C-239] | 10000 to 20000 nM | < 200 nM | < 200 nM
c1ccc(CCCCNC2=Nc3ccccc3NC23CCCCC3)cc1 [C-232] | 20000 to 50000 nM | < 1000 nM | < 2000 nM
c1ccc(CCCNC2=Nc3ccccc3NC23CCNCC3)cc1 [N-228] | 2000 to 5000 nM | < 50 nM | < 100 nM
Clc1cccc(CCNC2=Nc3ccccc3NC23CCCCC3)c1 [C-79] | 2000 to 5000 nM | < 500 nM | < 500 nM

SMILES | CC50 [1] | IC50 [2] | IC50 [3]
Clc1cc2c(cc1Cl)NC1(CCCCCC1)C(NCc1ccccc1Cl)=N2 [C-243] | 10000 to 20000 nM | < 1000 nM | < 500 nM
CN1CCC2(CC1)Nc1ccccc1N=C2NCc1ccccc1Cl [N-209] | 5000 to 10000 nM | < 500 nM | < 100 nM
COc1cccc(CNC2=Nc3ccccc3NC23CCOCC3)c1 [O/S-14] | 50000 to 100000 nM | < 5000 nM | < 5000 nM
COc1cccc(CNC2=Nc3ccccc3NC23CCCCC3)c1 [C-47] | 20000 to 50000 nM | < 1000 nM | < 500 nM
c1ccc(CNC2=Nc3ccccc3NC23CCNCC3)cc1 [N-206] | 20000 to 50000 nM | < 500 nM | < 200 nM
c1ccc(CCCCNC2=Nc3ccccc3NC23CCNCC3)cc1 [N-225] | 1000 to 2000 nM | < 1000 nM | < 50 nM
Fc1cc2c(cc1F)NC1(CCOCC1)C(NCc1ccccc1)=N2 [O/S-346] | 50000 to 100000 nM | < 1000 nM | < 500 nM
Fc1ccc(CNC2=Nc3ccccc3NC23CCCCCC3)c(F)c1 [C-242] | 10000 to 20000 nM | < 1000 nM | < 1000 nM
Fc1ccc(CNC2=Nc3ccccc3NC23CCSCC3)c(F)c1 [O/S-359] | 50000 to 100000 nM | < 5000 nM | > 5000 nM
Cc1cc2c(cc1C)NC1(CCNCC1)C(NCc1cccc(Cl)c1)=N2 [N-111] | 1000 to 2000 nM | < 10 nM | < 10 nM
Cc1cc2c(cc1C)NC1(CCCCCCC1)C(NCc1ccccc1)=N2 [C-241] | 5000 to 10000 nM | < 200 nM | < 500 nM
Clc1ccc(CNC2=Nc3ccccc3NC23CCCCC3)c(Cl)c1 [C-230] | 20000 to 50000 nM | < 500 nM | < 100 nM
CN1CCC2(CC1)Nc1ccccc1N=C2NCc1ccc(Cl)cc1 [N-213] | 5000 to 10000 nM | < 200 nM | < 100 nM
CC(C)(C)c1ccc(CNC2=Nc3ccccc3NC23CCOCC3)cc1 [O/S-350] | 20000 to 50000 nM | < 500 nM | < 500 nM
COc1cccc(CNC2=Nc3ccccc3NC23CCCCCC3)c1 [C-224] | 20000 to 50000 nM | < 1000 nM | < 500 nM
Cc1cccc(CNC2=Nc3cc(Cl)c(Cl)cc3NC23CCNCC3)c1 [N-224] | 1000 to 2000 nM | < 50 nM | < 10 nM
Fc1cccc(CNC2=Nc3ccccc3NC23CCNCC3)c1 [N-5] | 5000 to 10000 nM | < 50 nM | < 100 nM
FC(F)(F)c1cccc(CNC2=Nc3ccccc3NC23CCSCC3)c1 [O/S-189] | 50000 to 100000 nM | < 5000 nM | < 5000 nM
c1ccc(CNC2=Nc3ccccc3NC23CCCC3)cc1 [C-219] | 20000 to 50000 nM | < 5000 nM | < 2000 nM
c1ccc(C(CNC2=Nc3ccccc3NC23CCOCC3)c2ccccc2)cc1 [O/S-352] | 20000 to 50000 nM | < 1000 nM | < 1000 nM
c1ccc(CCNC2=Nc3ccccc3NC23CCNCC3)cc1 [N-226] | 10000 to 20000 nM | < 100 nM | < 100 nM
Cc1cc(C)cc(CNC2=Nc3ccccc3NC23CCSCC3)c1 [O/S-357] | 10000 to 20000 nM | < 500 nM | < 500 nM
